Measured values reported in patent US10208288B2, “Differentiation of human embryonic stem cells into pancreatic endocrine cells” (Janssen Biotech, Inc., priority 2012, dated 2019).

Test system: cells of the human embryonic stem cell line H1 differentiated to stage 6
Test: Immunostaining for NKX2.2 in stage 6 cultures
Assay type: cell-based
Settings: 10 μM at stage 6, immunostaining; in control cultures NKX2.2+ cells distributed uniformly
Description: Cells of the human embryonic stem cell line H1 (hESC H1, passage 40) were seeded as single cells at 1×10^5 cells/cm^2 on MATRIGEL™ (1:30 dilution; BD Biosciences, NJ) coated dishes in mTeSR®1 media (StemCell Technologies, Vancouver, Canada) supplemented with 10 μM of Y27632. Forty-eight hours post seeding, cultures were washed in incomplete PBS (phosphate buffered saline without Mg or Ca). Cultures were differentiated into pancreatic endoderm/endocrine lineages as follows: • a) Stage 1 (Definitive Endoderm (DE)—3 days): Cells were cultured for one day in stage 1 media (see Example 1, above). Cells were then cultured for an additional day in MCDB-131 medium supplemented with 0.1% fatty acid-free BSA, 0.0012 g/ml sodium bicarbonate, 1× GlutaMax™, 4.5 mM D-Glucose, 100 ng/ml GDF8, and 0.1 μM MCX compound. […]

CCCCCCCCCCCCC/C=C/[C@@H](O)[C@@H](N)COP(=O)(O)O [S1P, sphingosine-1-phosphate]
NKX2.2+ cells in endocrine clusters: enriched for NKX2.2+ cells
